Experimental data taken from publication PMC4788259 (PLoS Neglected Tropical Diseases, 2016).
Read-outs that look alike come from different tables or passages of the source.

How the values were obtained:
[1] = test system: E. multilocularis germinal layer cells; assay: CellTiter-Glo viability assay on germinal layer cell cultures; assay type: cell-based; details: Echinococcus multilocularis, 120 h, 5 days, read-out: E.m. GL cells (IC50)
Method: To assess the effects of MMV665807 on the viability of parasite cells, germinal layer cells were extracted according to Spiliotis et al. After overnight aggregate formation, 15 units of cells were distributed to a black 384 well plate (Nunc, Thermo Scientific, Reinach, Switzerland) in 12.5 μL medium. A concentration series (final concentrations of 3, 1, 0.3, 0.1, 0.03, 0.01 μM) of MMV665807, MMV665794 and mefloquine were prepared in medium and added 1:2 to the cells. For mefloquine, the concentration range was adjusted in a subsequent setup up to 100 μM. As negative control, DMSO was added accordingly. After 5 days of culture at 37°C under humid nitrogen atmosphere, 25 μL CellTiter-Glo (Promega, Dübendorf, Switzerland) including 1% TritonX-100 was added. Plates were incubated for 15 minutes on a shaker at room temperature and complete disruption of all cell aggregates was checked for before measurement of luminescence on a 2300 Enspire multilabel reader (Perkin-Elmer). Mean values and standard deviations were calculated and DMSO values set to 100% viability. The IC50 value was calculated in Microsoft Excel 2010 after logit-log transformation and averages as well as standard deviations of four independent setups were calculated.

[2] = cited from earlier work
[3] = test system: newly transformed schistosomula; parameters: method as in PMID 24416463; details: in vitro; read-out: IC50 against newly transformed schistosomula; cited from earlier work
[4] = parameters: method as in earlier work; details: HMS, Human; ref MMV; cited from earlier work
[5] = test system: E. multilocularis metacestodes; assay: Peroral treatment of secondary infected mice; assay type: in vivo, BALB/c mice; details: p.o. gavage 5 days per week, 4 weeks, MMV665807 100 mg/kg, ABZ 200 mg/kg
Method: (§1) Animals were kept at a temperature-controlled 12/12 hours light cycle with food and water ad libitum and according to the Swiss Animal protection law. For the in vivo treatment of MMV665807, BALB/c mice (from Charles River, Sulzfeld, Germany), at the age of 8 weeks with an average body weight of 20 g, were i.p. infected with 200 μL metacestodes vesicle suspension. This material was prepared from in vitro-cultured metacestodes (strain H95), which were disintegrated by pressing the parasites through a 1 mL pipette tip. Parasite tissue was centrifuged at 500 x g for 5 min at room temperature before being mixed 1:1 in PBS.
Peroral (p.o.) drug treatments by gavage were initiated 6 weeks post-infection and performed as follows: group 1 received no treatment at all; group 2 received 100 μL corn oil containing 7.8 μL DMSO; group 3 mice were treated with 100 μL corn oil containing albendazole (ABZ) in 7.8 μL DMSO, in order to obtain a dosage of 200 mg/kg body weight (positive control); group 4 was treated with 100 μL corn oil containing MMV665807 in 7.8 μL DMSO, resulting in 100 mg/kg body weight. All mice were treated for a total time period of 4 weeks, with consecutive treatment during 5 days per week, and interruption of treatment for 2 days each week. At the end of the treatment, all mice were sedated by isoflurane and subsequently euthanized by CO2. All parasite tissue was resected, placed into a petri dish, and the parasite mass was weighed. Statistical analysis of the in vivo experiments was performed in R version 3.0.1. The data distribution was checked by Shapiro-Wilk test and eventual differences between treatment groups identified by the non-parametric Kruskal-Wallis test. P values were calculated by the non-parametric Wilcoxon […] test with Bonferroni-adjustment. Boxplot visualizations of the data were prepared in Microsoft Excel 2010.

[6] = test system: E. multilocularis metacestodes; assay: Intraperitoneal treatment of secondary infected mice; assay type: in vivo, BALB/c mice; details: 4 weeks, MMV665807 100 mg/kg i.p. three times per week, ABZ 200 mg/kg p.o. 5 days per week
Method: as §1
I.p. drug treatments were initiated 2 weeks post-infection. 32 infected mice were randomly separated into 4 groups with 2 times 4 animals per cage. All animals were exposed to 4 weeks of treatment, with five consecutive days of drug application followed by a 2 day recovery period without treatment. Treatment groups were defined as follows: group 1 (control) received 50 μL of corn oil by gavage on 5 days per week, and an i.p. injection of DMSO in corn oil (4 μL DMSO and 46 μL corn oil) on three days per week; group 2 also received corn oil by gavage 5 days per week, and an i.p. injection of MMV665807 (100 mg/kg in 4 μL DMSO plus 46 μL corn oil) three times per week; group 3 was treated with the standard albendazole treatment (albendazole in corn oil, 200 mg/kg/ day for 5 days each week) and also received an i.p. injection of 4 μl DMSO suspended in 46 μl corn oil three times per week; group 4 received a combined treatment consisting of albendazole in corn oil by gavage (200 mg/kg/day 5 days per week) and an i.p. injection of MMV665807 (100 mg/kg three times per week). After 4 weeks of treatment, mice were euthanized and the parasite mass resected and measured as described above. Statistical analyses were performed as described above.

murine macrophages = test system: murine macrophages; parameters: method as in PMID 23211970; details: cited from earlier work
[7] = parameters: method as in earlier work; details: PLS, ref MMV; cited from earlier work
[8] = test system: human foreskin fibroblasts (HFF); assay: alamarBlue viability assay on HFF; assay type: cell-based; details: Fibroblast, 120 h, 5 days
Method: For testing growth inhibitory effects on confluent host cells, cells were seeded in 96-well plates (10,000 cells per well for HFF and 50,000 cells per well for RH cells), in DMEM containing FBS (10%) and antibiotics (100 U penicillin, 100 μg streptomycin and 0.25 μg amphotericin B per mL medium) and were cultured overnight at 37°C, 5% CO2. Thereafter the drugs (10 μM) were added and diluted in a serial 1:2 dilutions down to 20 nM. The concentration range was further adjusted in subsequent setups. For testing growth inhibitory effects on proliferating cells, cells were seeded at 1,000 (HFF) and 5,000 (RH) cells per well, and were allowed to attach for 5 hours at 37°C before addition of the drugs. After 5 days of culture, cell viability was assessed by alamarBlue assay.

M. tuberculosis = test system: M. tuberculosis; parameters: method as in PMID 23211970; details: cited from earlier work
[9] = PO, administered dose 119 μmol/kg, ref MMV

## O=C(Nc1cccc(C(F)(F)F)c1)c1cc(Cl)ccc1O [MMV665807]
[1]
  IC50: 0.6 ± 0.37 µM
[2]; [9]
  AUC0-last: 0.264 µM·h
  Cmax: 62.3 nM
  MRT0-last: 5.24 h
  Tlast: 9.00 h
  Tmax: 6.33 h
[2]; single dose p.o. application of 50 mg/kg, ref MMV (S3 Table)
  plasma level: 60 nM
[3]
  IC50: 1.8 µM
[4]
  CLint: 107.6 mL/min/kg
  t½: 0.388 h
[5]; start 6 weeks post-infection
  parasite weight compared to control: no effect
[5]
  adverse effects during treatment: No adverse effects
[6]; start 2 weeks post-infection
  parasite weight compared to placebo group: did not result in a reduction
[6]
  adverse effects during treatment: No adverse effects
Murine macrophages
  IC50: 5.9 µM
[7]
  % Remaining after Incubation (60 min) CD-1 Mouse Plasma: 102.5%
[8]; confluent cells, read-out: Confluent HFF (IC50)
  IC50: 29.2 ± 0.06 µM
[8]; proliferating cells, read-out: Preconfluent HFF (IC50)
  IC50: 4.8 ± 0.59 µM
M. tuberculosis
  MIC: 3.1 to 6.3 µM
